# According to patent publication US20260151516A1, “NEW PET TRACER FOR IMAGING OF THE FUNCTIONAL HEPATIC RESERVE” (Medizinische Universität Innsbruck, priority 2022, published 2026):
# Values joined by “and” are separate entries in the source; they are usually repeats but may differ in a detail not shown here. Equal entries are not always repeated.
# Experiments:
# [1] = Partition coefficient (log D), n-Octanol/PBS; format: physicochemical; conditions: read-out: logD
# Protocol: The vials were vortexed for 5 min at 1,500 rpm and then centrifuged for 5 min at 20,000 rcf (Eppendorf Centrifuge 5424).
# [2] = test system: human serum; assay: Protein binding in fresh human serum (Sephadex MicroSpin G-50 columns); format: in vitro ADME; conditions: 37° C.
# Protocol: Protein binding was determined for different time points (2 min, 30 min, 60 min, 120 min) in triplicates using Sephadex MicroSpin G-50 columns (GE-Healthcare, Chicago, Illinois, USA). The columns were spun initially at 20,000 rcf for 1 min to remove the storage buffer. Then approx. 5 MBq of radioligand was added to 1 mL of fresh human serum and incubated at 37° C. At each given timepoint 25 μL of the mixture was loaded on to the column, which was then spun at 20,000 rcf for 1 min. The activity content on the column (free radioligand) and in the filtrate (protein bound fraction) was quantified in a γ-counter.
# [3] = Ligand stability in human blood serum (radio-HPLC); format: in vitro ADME; conditions: for Serum stability (% of intact ligand): 37° C.
# Protocol: (§1) Ligand stability in human blood serum (n=2) and PBS (n=1) was determined for different time points (2 min, 30 min, 60 min, 120 min). Therefore, approx. 5 MBq of radioligand was added to 1 mL of fresh human serum or PBS and incubated at 37° C. At each given time point 100 μL of the mixture were transferred to a 1.5 mL Eppendorf tube containing 100 μL of acetonitrile. The vial was vortexed and centrifuged for 2 min at 14,000 rpm before 100 μL of the supernatant were diluted with 200 μL of water and injected into analytical radio-HPLC. The PBS solution was directly injected into the radio-HPLC. Ligand stability was determined by integrating the areas of the signals in the radio chromatogram in relation to the signal of the intact ligand.
# [4] = Ligand stability in PBS (radio-HPLC); format: physicochemical; conditions: 37° C., over the time course of 2 h
# Protocol: as §1
# [5] = molecular target: T1, Recombinant human ASGR1 (Homo sapiens, UniProt P07306); assay: In vitro binding study, isolated receptor-based assay against ^125I-Asialoorosomucoid; conditions: recombinant human ASGR1, ^125I-Asialoorosomucoid 50 nM, n = 3; method used [^natGa]Ga-NODAGA-TriGalactan
# T1 construct: His tag (inferred from immobilisation on Ni-coated plates)
# T1 sequence (P07306 1-291): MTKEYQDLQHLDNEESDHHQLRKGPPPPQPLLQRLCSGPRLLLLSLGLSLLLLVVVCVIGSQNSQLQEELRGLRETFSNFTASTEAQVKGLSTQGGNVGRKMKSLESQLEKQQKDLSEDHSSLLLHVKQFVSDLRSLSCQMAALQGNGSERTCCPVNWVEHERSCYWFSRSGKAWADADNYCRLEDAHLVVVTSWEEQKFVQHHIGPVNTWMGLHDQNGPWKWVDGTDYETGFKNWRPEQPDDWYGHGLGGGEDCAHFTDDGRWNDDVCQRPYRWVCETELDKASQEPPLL
# Protocol: Recombinant human ASGR1 was seeded out into Ni-coated 96 well plates (Pierce, Thermo Fisher) in PBS at a concentration of 2 μg/mL for at least 2 h at room temperature under mild agitation (200 1/min). Unbound receptor was removed by washing the wells twice with binding buffer (25 mM Tris×HCl, 150 mM NaCl, 0.05% TWEEN 20, pH=7.4). Next 140 μL of binding buffer as well as 20 μL of a 19 mM CaCl2-solution were added to the wells followed by addition of either 20 μL of PBS (control) or 20 μL of [^natGa]Ga-NODAGA-TriGalactan in PBS. Final ligand concentrations were ranging from 10^−5-10^−11 M. Lastly 20 μL of ^125I-Asialoorosomucoid (50 nM, 2.4 kBq per well) were added and the plate was incubated for 1 hour at room temperature under mild agitation (200 rpm). Supernatants were removed and the wells washed twice with 200 μL of PBS before receptor bound activity was released by addition of 200 μL of hot (60° C.) 1 M NaOH. Wells were incubated with NaOH for 10 min. Lysates were removed and the wells washed again twice with 200 μL of hot NaOH. The activity content in the lysates was quantified in a γ-counter and the values plotted in excel. Fitting of the sigmoidal binding curve and the calculation of the IC50 value was done with Excel's solver plugin.
# [6] = Biodistribution studies incl. blocking experiments; format: in vivo; conditions: healthy BALB/c mice
# Protocol: For biodistribution studies 6 week old female BALB/c mice (n=3) were injected with 0.1 nmol (100 μL, approx. 1 MBq) of labelled compound via the lateral tail vein and sacrificed after 10, 30, or 60 min by cervical dislocation. The mice were dissected, blood and organs (spleen, pancreas, stomach, intestine, liver, kidney, heart, lung, muscle, and bone) were weighed, and their activity measured in a γ-counter. For blocking experiments, mice were co-injected with 100 μL of a 277 mM Galactose/PBS solution. In case of [^68Ga]Ga-TRAP-GalNAc a 277 mM N-Acetylgalactose solution was used.
# [7] = 30 min p.i., blocking with 277 mM galactose
smiles,measurement,setting,value
"O=C(O)CN1CCN(CC(=O)O)CCN([C@H](CCC(=O)NCCCC(=O)NC(COCc2cn(CCOCCOCCO[C@@H]3O[C@H](CO)[C@H](O)[C@H](O)[C@H]3O)nn2)(COCc2cn(CCOCCOCCO[C@@H]3O[C@H](CO)[C@H](O)[C@H](O)[C@H]3O)nn2)COCc2cn(CCOCCOCCO[C@@H]3O[C@H](CO)[C@H](O)[C@H](O)[C@H]3O)nn2)C(=O)O)CC1 [[^68Ga]Ga-NODAGA-TriGalactan, metal not drawn]",logD,[1],-4.33 ± 0.09
same,Protein binding (%),[2]; 2 min,7.6±3.9%
same,Protein binding (%),[2]; 30 min,5.5%
same,Protein binding (%),[2]; 60 min,9.2%
same,Protein binding (%),[2]; 120 min,13.6±3.2%
same,Serum stability (% of intact ligand),[3]; 2 min,99.8%
same,Serum stability (% of intact ligand),[3]; 30 min,97.6%
same,Serum stability (% of intact ligand),[3]; 60 min,98.5%
same,Serum stability (% of intact ligand),[3]; 120 min,92.9%
same,Stability in human blood serum (% intact tracer),[3]; over the time course of 2 h,> 93%
same,Stability in PBS (% intact tracer),[4],> 99%
same,IC50,[5],1.7 nM
same,Biodistribution Blood,[6]; 10 min p.i.,3.3 ± 0.2 % ID/g
same,Biodistribution Femur,[6]; 10 min p.i.,0.87 ± 0.52 % ID/g
same,Biodistribution Intestine,[6]; 10 min p.i.,1.13 ± 0.07 % ID/g
same,Biodistribution Kidneys,[6]; 10 min p.i.,8.2±0.5 % ID/g and 8.15 ± 0.54 % ID/g
same,Biodistribution Liver,[6]; 10 min p.i.,33.4±0.9 % ID/g and 33.4 ± 0.88 % ID/g
same,Biodistribution Lung,[6]; 10 min p.i.,2.14 ± 0.13 % ID/g
same,Biodistribution Muscle,[6]; 10 min p.i.,0.77 ± 0.02 % ID/g
same,Biodistribution Pancreas,[6]; 10 min p.i.,0.87 ± 0.12 % ID/g
same,Biodistribution Spleen,[6]; 10 min p.i.,0.78 ± 0.05 % ID/g
same,Biodistribution Blood,[6]; 30 min p.i.,0.89 ± 0.09 % ID/g
same,Biodistribution Femur,[6]; 30 min p.i.,0.22 ± 0.02 % ID/g
same,Biodistribution Heart,[6]; 30 min p.i.,0.40 ± 0.03 % ID/g
same,Biodistribution Intestine,[6]; 30 min p.i.,1.95 ± 0.17 % ID/g
same,Biodistribution Kidneys,[6]; 30 min p.i.,2.83 ± 0.18 % ID/g
same,Biodistribution Liver,[6]; 30 min p.i.,32.2±3.7 % ID/g
same,Biodistribution Lung,[6]; 30 min p.i.,0.74 ± 0.03 % ID/g
same,Biodistribution Muscle,[6]; 30 min p.i.,0.23 ± 0.03 % ID/g
same,Biodistribution Pancreas,[6]; 30 min p.i.,0.31 ± 0.05 % ID/g
same,Biodistribution Spleen,[6]; 30 min p.i.,0.27 ± 0.02 % ID/g
same,Biodistribution Stomach,[6]; 30 min p.i.,1.05 ± 0.08 % ID/g
same,Biodistribution Blood,[6]; [7],1.19 ± 0.33 % ID/g
same,Biodistribution Femur,[6]; [7],0.37 ± 0.16 % ID/g
same,Biodistribution Heart,[6]; [7],0.44 ± 0.03 % ID/g
same,Biodistribution Intestine,[6]; [7],0.77 ± 0.19 % ID/g
same,Biodistribution Kidneys,[6]; [7],4.19 ± 0.29 % ID/g
same,Biodistribution Liver,[6]; [7],13.9±1.0 % ID/g and 14.6 ± 0.15 % ID/g
same,Biodistribution Lung,[6]; [7],0.97 ± 0.04 % ID/g
same,Biodistribution Muscle,[6]; [7],0.43 ± 0.20 % ID/g
same,Biodistribution Pancreas,[6]; [7],0.45 ± 0.01 % ID/g
same,Biodistribution Spleen,[6]; [7],0.32 ± 0.03 % ID/g
same,Biodistribution Stomach,[6]; [7],0.68 ± 0.11 % ID/g
same,Biodistribution Blood,[6]; 60 min p.i.,0.3±0.04 % ID/g and 0.34 ± 0.04 % ID/g
same,Biodistribution Femur,[6]; 60 min p.i.,0.26 ± 0.19 % ID/g
same,Biodistribution Heart,[6]; 60 min p.i.,0.17 ± 0.00 % ID/g
same,Biodistribution Intestine,[6]; 60 min p.i.,3.0±0.4 % ID/g and 2.99 ± 0.43 % ID/g
same,Biodistribution Kidneys,[6]; 60 min p.i.,1.51 ± 0.10 % ID/g
same,Biodistribution Liver,[6]; 60 min p.i.,27.7±3.1 % ID/g and 27.7 ± 3.12 % ID/g
same,Biodistribution Lung,[6]; 60 min p.i.,0.38 ± 0.10 % ID/g
same,Biodistribution Muscle,[6]; 60 min p.i.,0.17 ± 0.02 % ID/g
same,Biodistribution Pancreas,[6]; 60 min p.i.,0.19 ± 0.09 % ID/g
same,Biodistribution Spleen,[6]; 60 min p.i.,0.16 ± 0.02 % ID/g
same,Biodistribution Stomach,[6]; 60 min p.i.,0.92 ± 0.04 % ID/g
